In patent US11440906B2, “Biguanide derivatives and their rearrangement products for use in the treatment of cancer” (CENTRE NATIONAL DE LA RECHERCHE SCIENTIFIQUE, priority 2017, dated 2022):
Read-outs that look alike come from different tables or passages of the source.

Columns and labels:
[1] = system: A375 resistant melanoma cells; assay: In vivo murine cancer model, A375 resistant xenograft; design: species or system BALB/c nu/nu (nude) mice; settings: 0.7 mg/mouse/day intraperitoneal
Procedure: Animal experiments were carried out in accordance with the Declaration of Helsinki and were approved by a local ethical committee CIEPAL (Comité Institutionnel d'Ethique Pour l'Animal de Laboratoire-Azur). Female immune-deficient BALB/c nu/nu (nude) mice were obtained at 5 weeks of age from Envigo Laboratory (Gannat, France). Nude mice were inoculated subcutaneously with A375 sensitive or resistant melanoma cells (1.0×10^6 cells/mouse). After tumor apparition (±5 days), animals received intraperitoneal injection of Labrafil (Control), PLX4032 (0.7 mg/mouse/day) or CRO15 (0.7 mg/mouse/day) dissolved in Labrafil. The growth tumor curves were determined by measuring the tumor volume using the equation V=(L*W2)/2 (V=tumor volume, W=tumor width, L=tumor length). At the end of the experiment, mice were euthanized by cervical dislocation and tumors were taken for western blot and immunofluorescence experiments (LC3, Cleaved Caspase 3). TUNEL assay was performed using the In Situ Cell Death Detection Kit (Roche, Meylan, France). The results are shown in FIGS. 3A and 3B (A375 sensitive melanoma cells), and 4B and 4C (A375 resistant melanoma cells).
In Vivo Murine Cancer Model Animal experiments were carried out in accordance with the Declaration of Helsinki and were approved by a local ethical committee CIEPAL (Comite Institutionnel d'Ethique Pour l'Animal de Laboratoire-Azur). Female immune-deficient BALB/c nu/nu (nude) mice were obtained at 5 weeks of age from Envigo Laboratory (Gannat, France). Nude mice were inoculated subcutaneously with A375 resistant melanoma cells (1.0×10^6 cells/mouse). After tumor apparition (+5 days), animals received intraperitoneal injection of Labrafil (Control), PLX4032 (0.7 mg/mouse/day) or MTF319 (0.7 mg/mouse/day) dissolved in Labrafil. The growth tumor curves were determined by measuring the tumor volume using the equation V=(L*W2)/2 (V=tumor volume, W=tumor width, L=tumor length). At the end of the experiment, mice were euthanized by cervical dislocation.

WM9 cells = assay: Resistance development in WM9 cells after 8 weeks of drug exposure; type: cell-based, human; settings: 8 weeks increasing concentrations, then 10 μM 48 hrs; FIG. 7B
Source text: Different melanoma cell lines were purchased from the American Tissue Culture Collection: A375 and WM9 cells are mutated on B-Raf, CDKN2A and PTEN proteins; SKmel28 cells are mutated on B-Raf and P53 proteins; 1205Lu cells are mutated on B-Raf and PTEN proteins; G-361 cells are mutated on B-Raf and CDKN2A proteins; C8161 cells are mutated on B-Raf and K-Ras proteins; WM3912 cells are mutated on B-Raf and CDKN2A proteins; MeWo cells are mutated on P53 and CDKN2A proteins; WM3918 presents no mutations on characteristic proteins.
For trypan blue staining, […] of cells (melanoma and normal human cells) were aseptically transferred to a 1.5 mL clear Eppendorf tube and incubated for 3 min at room temperature with an equal volume of 0.4% trypan blue solution. Viable cells were counted and the results are expressed as the percentage of the value of control cells. All the experiments are performed 3 times in triplicate.
To study weither melanoma cells WM9 would develop resistance to CRO15, these cells were kept in culture during 8 weeks in presence of increasing concentrations of either, DMSO (control), PLX4032, CRO15 or MTF255. The starting concentration was 0.2 μM.
Along with non-treated WM9S (naive cells), drug-treated WM9S were then stimulated with 10 μM of each drug during 48 hrs. Viable cells were counted using the trypan blue dye exclusion method. […]

AMPK = assay: Western blot assays, A375 Sensitive cells; type: cell-based, human; settings: 5 μM, 6 hr, 12 hr or 24 hr; FIG. 2
Procedure: Western blot analyses were performed as described (Lehraiki et al., 2014). Proteins were extracted in buffer containing 50 mmol/l Tris-HCl (pH 7.5), 15 mmol/1, NaCl, 1% Triton X-100, and 1× protease and phosphatase inhibitors. Briefly, cell lysates […] were separated by SDS-PAGE, transferred onto a polyvinylidene fluoride membrane (Millipore), and then exposed to the appropriate antibodies. Proteins were visualized with the ECL System from Amersham. The western blot analyses shown are representative of at least three independent experiments.
Western Blot analysis: A375 Sensitive cells were treated with 5 μM of CRO15 for different time (6 hr, 12 hr or 24 hr) or with DMSO (Control) for 24 hr.

A375 Sensitive cells = assay: Viability test, trypan blue exclusion, A375 Sensitive cells; type: cell-based, human; settings: for viability at 5 µM / viability at 10 µM: viable cells as percentage of DMSO control
How it was run: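 A375 (B-Raf, CDKN2A, PTEN mutant) cells were exposed to compounds at 5.0 or 10 μM for 24 or 48 hr; CRO15 also at 0.5–50 μM for 48 hr or 5 μM for 2–48 hr; DMSO control. Viable cells were counted by trypan blue exclusion, as % of control. Three experiments in triplicate.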

Compound: Nc1nc(Nc2ccccc2SSc2ccccc2Nc2nc(N)nc(C(Cl)(Cl)Cl)n2)nc(C(Cl)(Cl)Cl)n1 [CRO15, N2,N2′-(disulfanediylbis(2,1-phenylene))bis(6-(trichloromethyl)-1,3,5-triazine-2,4-diamine)]
- tumor volume ([1]; FIG. 4B, 6A): reduces
- tumor weight ([1]; FIG. 4C, 6B): reduces
- cell viability of WM9 after 8 weeks of treatment and stimulation with the drug (WM9 cells): still able to induce cell death
- activation of AMPK (western blot) (AMPK): induces an activation of AMPK
- decrease of the viability compared with PLX4032 (A375 Sensitive cells; 5 μM each, 48 hr, FIG. 1A): more important with CRO15 than with PLX4032
- cell viability of A375 S cells, kinetic (A375 Sensitive cells; 5 μM, 2 hr to 48 hr, FIG. 1A): induces a decrease of the viability of melanoma cells
- cell viability, A375 sensitive melanoma cells (A375 Sensitive cells; 5 μM, 48 hr, FIG. 4A): induces a decrease of the cell viability
- dose-response on melanoma cells viability (A375 Sensitive cells; 0.5-50 μM, 48 hr, FIG. 1B): dose-response relationship
- viability at 5 µM (A375 Sensitive cells; Homo sapiens, A-375, 5 μM, 24 h, read-out: Viab A375 5 μM/ 24 h): 36%
- viability at 5 µM (A375 Sensitive cells; Homo sapiens, A-375, 5 μM, 48 h, read-out: Viab A375 5 μM/ 48 h): 27%
- viability at 10 µM (A375 Sensitive cells; Homo sapiens, A-375, 24 h, read-out: Viab A375 10 μM/ 24 h): 23%
- viability at 10 µM (A375 Sensitive cells; Homo sapiens, A-375, 48 h, read-out: Viab A375 10 μM/ 48 h): 2.6%
- IC50 (A375 Sensitive cells; Homo sapiens, A-375, A375 Sensitive cells, 48 hr, read-out: IC50 of CRO15): 3.75 µM
